From PubChem BioAssay (NCI)
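GI50 marks 50% less growth. TGI marks complete inhibition of growth.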

Key:
Test in all cases: NCI tumour cell line growth inhibition, 384-well format
BT-549 breast = test system: BT-549 breast
UACC-257 melanoma = test system: UACC-257 melanoma
786-0 renal = test system: 786-0 renal
PC-3 prostate = test system: PC-3 prostate
NCI/ADR-RES ovarian = test system: NCI/ADR-RES ovarian
RPMI-8226 leukemia = test system: RPMI-8226 leukemia
UO-31 renal = test system: UO-31 renal
HOP-62 NSCLC = test system: HOP-62 NSCLC
SR leukemia = test system: SR leukemia
A498 renal = test system: A498 renal
MOLT-4 leukemia = test system: MOLT-4 leukemia
K-562 leukemia = test system: K-562 leukemia
HL-60(TB) leukemia = test system: HL-60(TB) leukemia
HCT-116 colon = test system: HCT-116 colon
SF-268 CNS = test system: SF-268 CNS
OVCAR-8 ovarian = test system: OVCAR-8 ovarian
NCI-H460 NSCLC = test system: NCI-H460 NSCLC
DU-145 prostate = test system: DU-145 prostate
SF-539 CNS = test system: SF-539 CNS
TK-10 renal = test system: TK-10 renal
ACHN renal = test system: ACHN renal
KM12 colon = test system: KM12 colon
SF-295 CNS = test system: SF-295 CNS
CAKI-1 renal = test system: CAKI-1 renal
OVCAR-5 ovarian = test system: OVCAR-5 ovarian
U251 glioblastoma = test system: U251 glioblastoma
RXF 393 renal = test system: RXF 393 renal
CCRF-CEM leukemia = test system: CCRF-CEM leukemia
EKVX NSCLC = test system: EKVX NSCLC
SN12C renal = test system: SN12C renal
NCI-H522 lung = test system: NCI-H522 lung
T-47D breast = test system: T-47D breast
COLO 205 colon = test system: COLO 205 colon
SK-MEL-2 melanoma = test system: SK-MEL-2 melanoma
SNB-75 CNS = test system: SNB-75 CNS
SW-620 colon = test system: SW-620 colon
OVCAR-4 ovarian = test system: OVCAR-4 ovarian
NCI-H322M lung = test system: NCI-H322M lung
HCT-15 colon = test system: HCT-15 colon
HCC-2998 colon = test system: HCC-2998 colon
SNB-19 CNS = test system: SNB-19 CNS
IGROV1 ovarian = test system: IGROV1 ovarian
HT29 colon = test system: HT29 colon
A549 NSCLC = test system: A549 NSCLC
HS 578T breast = test system: HS 578T breast
M14 melanoma = test system: M14 melanoma
UACC-62 melanoma = test system: UACC-62 melanoma

O=C(Nc1cnn2ccc(N3CCC[C@@H]3c3cc(F)ccc3F)nc12)N1CC[C@H](O)C1
GI50 (BT-549 breast): > 100 µM
TGI (BT-549 breast): > 100 µM
GI50 (UACC-257 melanoma): > 100 µM
TGI (UACC-257 melanoma): > 100 µM
GI50 ([…]-0 renal): > 100 µM
TGI (786-0 renal): > 100 µM
GI50 (PC-3 prostate): > 100 µM
TGI (PC-3 prostate): > 100 µM
GI50 (NCI/ADR-RES ovarian): > 100 µM
TGI (NCI/ADR-RES ovarian): > 100 µM
GI50 (RPMI-8226 leukemia): > 100 µM
TGI (RPMI-8226 leukemia): > 100 µM
GI50 (UO-31 renal): > 100 µM
TGI (UO-31 renal): > 100 µM
GI50 (HOP-62 NSCLC): > 100 µM
TGI (HOP-62 NSCLC): > 100 µM
GI50 (SR leukemia): > 78.9 µM
TGI (SR leukemia): > 100 µM
GI50 (A498 renal): > 100 µM
TGI (A498 renal): > 100 µM
GI50 (MOLT-4 leukemia): 77.1 µM
TGI (MOLT-4 leukemia): > 100 µM
GI50 (K-562 leukemia): > 100 µM
TGI (K-562 leukemia): > 100 µM
GI50 (HL-60(TB) leukemia): > 100 µM
TGI (HL-60(TB) leukemia): > 100 µM
GI50 (HCT-116 colon): > 100 µM
TGI (HCT-116 colon): > 100 µM
GI50 (SF-268 CNS): > 100 µM
TGI (SF-268 CNS): > 100 µM
GI50 (OVCAR-8 ovarian): > 100 µM
TGI (OVCAR-8 ovarian): > 100 µM
GI50 (NCI-H460 NSCLC): > 100 µM
TGI (NCI-H460 NSCLC): > 100 µM
GI50 (DU-145 prostate): > 100 µM
TGI (DU-145 prostate): > 100 µM
GI50 (SF-539 CNS): > 100 µM
TGI (SF-539 CNS): > 100 µM
GI50 (TK-10 renal): > 100 µM
TGI (TK-10 renal): > 100 µM
GI50 (ACHN renal): > 100 µM
TGI (ACHN renal): > 100 µM
GI50 (KM12 colon): 0.0181 µM
TGI (KM12 colon): > 100 µM
GI50 (SF-295 CNS): > 100 µM
TGI (SF-295 CNS): > 100 µM
GI50 (CAKI-1 renal): > 100 µM
TGI (CAKI-1 renal): > 100 µM
GI50 (OVCAR-5 ovarian): > 100 µM
TGI (OVCAR-5 ovarian): > 100 µM
GI50 (U251 glioblastoma): > 100 µM
TGI (U251 glioblastoma): > 100 µM
GI50 (RXF 393 renal): > 100 µM
TGI (RXF 393 renal): > 100 µM
GI50 (CCRF-CEM leukemia): > 100 µM
TGI (CCRF-CEM leukemia): > 100 µM
GI50 (EKVX NSCLC): > 100 µM
TGI (EKVX NSCLC): > 100 µM
GI50 (SN12C renal): > 100 µM
TGI (SN12C renal): > 100 µM
GI50 (NCI-H522 lung): > 100 µM
TGI (NCI-H522 lung): > 100 µM
GI50 (T-47D breast): > 100 µM
TGI (T-47D breast): > 100 µM
GI50 (COLO 205 colon): > 100 µM
TGI (COLO 205 colon): > 100 µM
GI50 (SK-MEL-2 melanoma): > 100 µM
TGI (SK-MEL-2 melanoma): > 100 µM
GI50 (SNB-75 CNS): > 100 µM
TGI (SNB-75 CNS): > 100 µM
GI50 (SW-620 colon): > 100 µM
TGI (SW-620 colon): > 100 µM
GI50 (OVCAR-4 ovarian): > 100 µM
TGI (OVCAR-4 ovarian): > 100 µM
GI50 (NCI-H322M lung): > 100 µM
TGI (NCI-H322M lung): > 100 µM
GI50 (HCT-15 colon): > 100 µM
TGI (HCT-15 colon): > 100 µM
GI50 (HCC-2998 colon): > 100 µM
TGI (HCC-2998 colon): > 100 µM
GI50 (SNB-19 CNS): > 100 µM
TGI (SNB-19 CNS): > 100 µM
GI50 (IGROV1 ovarian): > 100 µM
TGI (IGROV1 ovarian): > 100 µM
GI50 (HT29 colon): > 100 µM
TGI (HT29 colon): > 100 µM
GI50 (A549 NSCLC): > 100 µM
TGI (A549 NSCLC): > 100 µM
GI50 (HS 578T breast): > 100 µM
TGI (HS 578T breast): > 100 µM
GI50 (M14 melanoma): > 100 µM
TGI (M14 melanoma): > 100 µM
GI50 (UACC-62 melanoma): > 100 µM
TGI (UACC-62 melanoma): > 100 µM

COc1ncc(-c2nc3c(n2C(C)C)[C@H](c2ccc(Cl)cc2)N(c2cc(Cl)cn(C)c2=O)C3=O)c(OC)n1
GI50 (BT-549 breast): 36.2 µM
TGI (BT-549 breast): > 100 µM
GI50 (UACC-257 melanoma): 17.5 µM
TGI (UACC-257 melanoma): 37.3 µM
GI50 ([…]-0 renal): 62.7 µM
TGI (786-0 renal): > 100 µM
GI50 (PC-3 prostate): 39.7 µM
TGI (PC-3 prostate): > 100 µM
GI50 (NCI/ADR-RES ovarian): 62.6 µM
TGI (NCI/ADR-RES ovarian): > 100 µM
GI50 (RPMI-8226 leukemia): 20.7 µM
TGI (RPMI-8226 leukemia): 42.7 µM
GI50 (UO-31 renal): 12.4 µM
TGI (UO-31 renal): 28.2 µM
GI50 (HOP-62 NSCLC): > 51 µM
TGI (HOP-62 NSCLC): > 100 µM
GI50 (SR leukemia): 1.96 µM
TGI (SR leukemia): 10.9 µM
GI50 (A498 renal): 9.44 µM
TGI (A498 renal): 52.9 µM
GI50 (MOLT-4 leukemia): 2.06 µM
TGI (MOLT-4 leukemia): 5.15 µM
GI50 (K-562 leukemia): 33.2 µM
TGI (K-562 leukemia): > 100 µM
GI50 (HL-60(TB) leukemia): 16.7 µM
TGI (HL-60(TB) leukemia): 31.1 µM
GI50 (HCT-116 colon): 18.2 µM
TGI (HCT-116 colon): > 100 µM
GI50 (SF-268 CNS): > 50.5 µM
TGI (SF-268 CNS): > 77.9 µM
GI50 (OVCAR-8 ovarian): 66.1 µM
TGI (OVCAR-8 ovarian): > 100 µM
GI50 (NCI-H460 NSCLC): 14.2 µM
TGI (NCI-H460 NSCLC): 45.5 µM
GI50 (DU-145 prostate): 64.4 µM
TGI (DU-145 prostate): > 100 µM
GI50 (SF-539 CNS): > 73 µM
TGI (SF-539 CNS): > 100 µM
GI50 (TK-10 renal): > 68.4 µM
TGI (TK-10 renal): > 100 µM
GI50 (ACHN renal): 13.1 µM
TGI (ACHN renal): 47.8 µM
GI50 (KM12 colon): 49.8 µM
TGI (KM12 colon): > 100 µM
GI50 (SF-295 CNS): 63.6 µM
TGI (SF-295 CNS): > 100 µM
GI50 (CAKI-1 renal): 6.27 µM
TGI (CAKI-1 renal): > 64.1 µM
GI50 (OVCAR-5 ovarian): > 100 µM
TGI (OVCAR-5 ovarian): > 100 µM
GI50 (U251 glioblastoma): 65.4 µM
TGI (U251 glioblastoma): > 100 µM
GI50 (RXF 393 renal): 35.5 µM
TGI (RXF 393 renal): > 89.3 µM
GI50 (CCRF-CEM leukemia): 22.9 µM
TGI (CCRF-CEM leukemia): 51.7 µM
GI50 (EKVX NSCLC): 58.7 µM
TGI (EKVX NSCLC): > 100 µM
GI50 (SN12C renal): > 93.2 µM
TGI (SN12C renal): > 100 µM
GI50 (NCI-H522 lung): 48.4 µM
TGI (NCI-H522 lung): > 100 µM
GI50 (T-47D breast): 34.3 µM
TGI (T-47D breast): > 91.8 µM
GI50 (COLO 205 colon): 62.6 µM
TGI (COLO 205 colon): > 100 µM
GI50 (SK-MEL-2 melanoma): > 100 µM
TGI (SK-MEL-2 melanoma): > 100 µM
GI50 (SNB-75 CNS): > 52.2 µM
TGI (SNB-75 CNS): > 100 µM
GI50 (SW-620 colon): 53.5 µM
TGI (SW-620 colon): 97.8 µM
GI50 (OVCAR-4 ovarian): 28.9 µM
TGI (OVCAR-4 ovarian): > 100 µM
GI50 (NCI-H322M lung): > 96 µM
TGI (NCI-H322M lung): > 100 µM
GI50 (HCT-15 colon): 36 µM
TGI (HCT-15 colon): > 100 µM
GI50 (HCC-2998 colon): 65.7 µM
TGI (HCC-2998 colon): > 100 µM
GI50 (SNB-19 CNS): > 94.8 µM
TGI (SNB-19 CNS): > 100 µM
GI50 (IGROV1 ovarian): 24.9 µM
TGI (IGROV1 ovarian): > 100 µM
GI50 (HT29 colon): 51.5 µM
TGI (HT29 colon): > 100 µM
GI50 (A549 NSCLC): 16.6 µM
TGI (A549 NSCLC): 58.7 µM
GI50 (HS 578T breast): 33.3 µM
TGI (HS 578T breast): > 100 µM
GI50 (M14 melanoma): 48.5 µM
TGI (M14 melanoma): > 100 µM
GI50 (UACC-62 melanoma): 5.25 µM
TGI (UACC-62 melanoma): 22.7 µM
